Assay results as given in US9605041B2, “Regulatory proteins and inhibitors” (INTRA-CELLULAR THERAPIES, INC., priority 2009, dated 2017).
“Also recorded” adds a separate entry of the source. One block for each molecule: values may come before it.

Tests used:
[1] = target: T1, Abl kinase (Homo sapiens, UniProt P00519); assay: Kinase profiling (Millipore standard assay), Abl kinase
[2] = target: PDGF receptor; assay: Kinase profiling (Millipore standard assay), PDGF receptor; details: ATP=45 μM
[3] = target: T1, Abl kinase; assay: Ki versus Abl kinase; format: biochemical
[4] = system: mouse ΔE-Notch cleavage; assay: ΔE-Notch cleavage in HEK293 cells incubated with test compounds; format: cell-based, human; details: 4 h incubation, DAPT positive control
[5] = target: panel of 40 kinases; assay: Panel of 40 kinases; format: biochemical; details: data not shown
[6] = system: Aβ in N2a cell system; assay: Total human Aβ in the N2a cell system (sandwich ELISA, Western blot); format: cell-based
Protocol: Total human Aβ in the N2a cell system is measured in a standard sandwich ELISA by using a specific monoclonal antibody (6E10, Signet Laboratories) to capture the Aβ40 and Aβ42 and an antibody to Aβ17-24 (4G8, Signet Laboratories, Dedham, Mass.) for detection. Cell culture medium (5 μL/well) is diluted to 100 μL in phosphate-buffered saline/0.2% Tween 20 and loaded onto ELISA plates. For Western blot assays, cell medium is diluted with 2× tricine sodium dodecyl sulfate sample buffer, and heated at 95° C. for 5 min. […] Aβ is detected with antibody 4G8 and an Alexa 680-conjugated rabbit anti-mouse secondary and scanned with a LiCor Odyssey infrared scanner.

[7] = system: Aβ production in Neuroblastoma 2a cells stably overexpressing human APP695; assay: Cellular Aβ production assay, incubation with G01 (4G8 immunoprecipitation, 6E10 blot); format: cell-based; details: 10 μM, 3 hr
Protocol: Neuroblastoma 2a cells stably overexpressing human APP695 are treated with 10 μM G01 for 3 hr. Cells treated with DMSO, or DMSO plus imatinib are used as controls. After 3 hr, conditioned medium is collected and Aβ immunoprecipitation is conducted using 4G8 antibody. The immunoprecipitated Aβ is separated on 10-20% Tris-tricine gel, transferred to PVDF membrane and detected by 6E10 antibody. […]

[8] = target: T2, gSAP (Mus musculus, UniProt Q3TCV3); assay: siRNA knockdown of gSAP in neuroblastoma cells overexpressing APP695, gSAP level and Aβ; format: cell-based
T2 construct: pulse-chase labeling of endogenous gSAP in N2a cells; endogenous in cells; host or cells: Neuroblastoma 2a cells stably overexpressing APP695
T2 sequence (Q3TCV3 738-858 limits assumed): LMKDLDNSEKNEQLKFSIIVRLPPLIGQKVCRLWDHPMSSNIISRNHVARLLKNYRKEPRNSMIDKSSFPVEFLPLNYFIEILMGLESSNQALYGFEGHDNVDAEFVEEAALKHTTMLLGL
Protocol: For cellular gSAP knockdown experiments, small interfering RNA (siRNA) of gSAP is purchased from Dharmacon Inc. The sequences of the siRNA used are as follow: sense sequence: [NT]; antisense sequence: 5'-[NT] Neuroblastoma 2a cell line stably overexpressing APP695 is transfected with siRNA using DharmaFect 2 reagent at a concentration of 50 nM following instructions provided by the manufacturer. […] To assay Aβ, the medium is removed after 48 h of transfection and replaced with Opti-MEM for 3 h incubation. Aβ is then immunoprecipitated from conditioned medium using the 4G8 antibody. Quantitation of Aβ levels in the conditioned medium is also assessed using Aβ40 and Aβ42 ELISA kits (Invitrogen). The procedures are carried out according to the manufacturer's instructions.

[9] = target: T3, gSAP (16 kDa band) (Homo sapiens, UniProt A4D1B5); assay: Affinity capture on immobilized biotin-imatinib beads, silver staining; format: binding; details: HEK293 cell lysates, SDS-PAGE
T3 construct: the 16 kDa band is identified as the C-terminal domain of gSAP by MS/MS mass spectrometry; endogenous in cells; host or cells: CHAPSO-solubilized membrane extract of HEK293 cells
T3 sequence (A4D1B5 734-854 limits assumed): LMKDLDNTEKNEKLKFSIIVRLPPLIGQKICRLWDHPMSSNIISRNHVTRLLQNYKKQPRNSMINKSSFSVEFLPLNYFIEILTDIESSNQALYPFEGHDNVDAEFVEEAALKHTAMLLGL
Protocol: After cell debris is cleared by centrifugation at 1,000 g for 5 mins, the supernatant is subjected to ultracentrifugation at 100,000 g for 1 h. The membrane pellet is then solubilized on ice in 50 mM Hepes, 150 mM NaCl, 5 mM MgCl2, 5 mM CaCl2, and 1% CHAPSO containing protease inhibitors (Roche Inc. cat#04 693 132 001) for 1 h and subject to ultracentrifugation for 1 h at 100,000 g. The soluble membrane extracts are incubated with Myonen™ streptavidin T1 beads (cat#656-01, Invitrogen) containing bound active biotin-imatinib for 3 hr at 4° C. Subsequently, the beads are washed three times with lysate buffer. Bound proteins are eluted with tricine SDS-PAGE sample buffer and separated on 10-20% tris-tricine gels. For immunoblotting, the gel is then transferred to PVDF membrane and probed with γ-secretase antibodies: PS1 antibody (cat#529592) and Pen-2 antibody (cat#NE1008) are from EMD Biosciences and nicastrin antibody is from BD Transduction Laboratories (cat#612290). Silver staining is used to identify protein bands in SDS-PAGE gels. The ˜16 kDa band is excised, trypsinized, and sequenced by tandem MS/MS mass spectrometry.
Endogenous γ-secretase components are detected by specific antibodies to Nicastrin, PS1-CTF and Pen-2. Photoactivatible ^125I and ^3H-G01 are used to label membrane preparations or intact HEK293 cells, respectively. […]

[10] = system: Aβ production; details: Netzer et al. 2003; cited from earlier work
[11] = target: T4, gSAP-16K (16 kDa band) (Homo sapiens, UniProt A4D1B5); assay: In vitro and intact cell photolabeling with 125I-G01 / 3H-G01; format: binding; details: 20 nM 125I-G01 on membranes or 3H-G01 on intact cells, photolysis
T4 construct: is rapidly processed into a ˜16 kDa C-terminal fragment (gSAP-16K); endogenous in cells; host or cells: HEK293 membrane preparations (125I-G01) and intact HEK293 cells (3H-G01)
T4 sequence (A4D1B5 733-854): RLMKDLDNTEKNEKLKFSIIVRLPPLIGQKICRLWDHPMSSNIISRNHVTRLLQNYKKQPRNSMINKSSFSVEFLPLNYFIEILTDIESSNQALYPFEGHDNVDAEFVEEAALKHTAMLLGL

[12] = target: T5, γ-secretase (Homo sapiens, UniProt P49768); assay: In vitro γ-secretase assay, membranes from HEK293 cells with APP-β-CTF; format: biochemical
T5 construct: Membrane pellets are prepared from HEK293 cells transfected with APP-β-CTF (CT-100) as described above; endogenous in cells; host or cells: membranes of HEK293 cells transfected with APP-β-CTF (CT-100); gSAP-16K added from BL21 DE3 E. coli
Protocol: Membrane pellets are prepared from HEK293 cells transfected with APP-β-CTF (CT-100) as described above, and the membranes are washed with assay buffer (10 mM Hepes, 140 mM KOAc, 2.5 mM MgOAc, 0.1 mM CaCl2, 1 mM ATP, pH 7.2) and pelleted at 100,000 g for 30 min at 4° C. Recombinant gSAP-16K (aa733-854 of the human gSAP) is expressed and purified from BL21 DE3 E. coli. The membranes are resuspended in 200 μl of assay buffer with 2 μg recombinant gSAP-16K or the same amount of BSA as control. A parallel system with 1 μM L685,458 (γ-secretase inhibitor) is also used as a control. The membrane suspension is pre-incubated at 4° C. for 1 hr and then incubated for 2 hr at 37° C. to allow in vitro generation of Aβ. The membranes are solubilized in ¼ volume of 200 mM Tris, pH 7.8, 760 mM NaCl, 24 mM EDTA, 10% Triton X-100, and insoluble material is removed by centrifugation at 10,000 g for 20 min. Aβ is immunoprecipitated from the lysate using 4G8 antibody, separated on 10-20% Tris-tricine gel, transferred to PVDF membrane, and subjected to autoradiography using Kodak MR film.

T1 sequence (P00519 whole entry): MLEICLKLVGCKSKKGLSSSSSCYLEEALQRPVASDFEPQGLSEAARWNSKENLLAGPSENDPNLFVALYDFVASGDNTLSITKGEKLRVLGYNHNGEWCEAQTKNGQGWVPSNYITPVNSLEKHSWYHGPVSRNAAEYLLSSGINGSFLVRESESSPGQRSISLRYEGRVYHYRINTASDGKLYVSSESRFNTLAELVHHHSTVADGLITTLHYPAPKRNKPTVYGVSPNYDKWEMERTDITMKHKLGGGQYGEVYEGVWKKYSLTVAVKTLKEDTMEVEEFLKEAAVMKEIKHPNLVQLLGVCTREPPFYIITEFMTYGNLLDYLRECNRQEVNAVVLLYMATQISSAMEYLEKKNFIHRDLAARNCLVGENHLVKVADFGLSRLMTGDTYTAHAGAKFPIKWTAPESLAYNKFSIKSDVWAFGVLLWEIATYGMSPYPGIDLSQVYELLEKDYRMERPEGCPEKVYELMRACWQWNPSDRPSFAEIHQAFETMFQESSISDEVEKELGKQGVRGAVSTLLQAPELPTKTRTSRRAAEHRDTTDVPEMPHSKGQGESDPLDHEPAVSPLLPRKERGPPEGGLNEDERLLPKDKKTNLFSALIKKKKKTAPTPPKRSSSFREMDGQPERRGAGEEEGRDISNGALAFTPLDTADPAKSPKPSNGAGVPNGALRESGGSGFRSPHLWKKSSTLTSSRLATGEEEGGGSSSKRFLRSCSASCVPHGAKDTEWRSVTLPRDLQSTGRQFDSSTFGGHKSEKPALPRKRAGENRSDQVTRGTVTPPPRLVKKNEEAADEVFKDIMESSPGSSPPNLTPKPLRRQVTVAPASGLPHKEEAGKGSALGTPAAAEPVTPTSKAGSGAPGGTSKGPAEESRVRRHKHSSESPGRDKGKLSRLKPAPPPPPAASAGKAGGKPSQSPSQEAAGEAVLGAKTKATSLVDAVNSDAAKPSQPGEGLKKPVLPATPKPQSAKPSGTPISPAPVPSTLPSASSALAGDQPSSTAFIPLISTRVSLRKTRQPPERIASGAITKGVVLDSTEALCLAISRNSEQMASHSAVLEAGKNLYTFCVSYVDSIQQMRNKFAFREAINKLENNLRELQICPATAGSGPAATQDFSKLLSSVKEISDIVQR

IC50 [1]: 0.146 µM | IC50 ([2]; read-out: IC50 against PDGF receptor): 6.6 µM
Molecule: Cc1ccc(NC(=O)c2ccc(CN3CCN(CCNC(=O)CCCC[C@@H]4SC[C@@H]5NC(=O)N[C@@H]54)CC3)cc2)cc1Nc1nccc(-c2cccnc2)n1 [IC339239]

Ki [3]: ~12 µM | weaker activity versus Abl kinase compared to imatinib [3]: 100 fold | kinase inhibitory activity against a panel of 40 kinases [5]: little kinase inhibitory activity
Molecule: Cc1ncc(NC(=O)c2ccc(CC3CCN(C)CC3)cc2)cc1Nc1nccc(-c2ccccc2)n1 [N-(6-methyl-5-(4-phenylpyrimidin-2-ylamino)pyridin-3-yl)-4-((1-methylpiperidin-4-yl)methyl)benzamide]
influence on NOTCH metabolism [4]: do not influence NOTCH metabolism | concentrations that significantly lower Aβ [6]: < 500 nM

Molecule: Cc1ccc(NC(=O)c2ccc(N=[N+]=[N-])cc2O)cc1Nc1nccc(-c2cccnc2)n1 [G01, 4-azido-2-hydroxy-N-(4-methyl-3-(4-(pyridin-3-yl)pyrimidin-2-ylamino)phenyl)benzamide]
Aβ in conditioned medium compared to DMSO vehicle [7]: significantly reduces Aβ

Molecule: siRNA: siRNA of gSAP, sense AUGCAGAGCUGGACGACAUUU, antisense 5′-P.AUGUCGUCCAGCUCUGCAUUU (5'-phosphate on antisense, further chemistry not given here)
decrease of the level of Aβ ([8]; gSAP siRNA knockdown): about 50% | reduction of gSAP level ([8]; siRNA 50 nM): 72±15%

inhibitory activity toward Abl kinase ([1]; ATP=45 μM): no significant inhibitory activity | binding of the ~16 kDa band (gSAP) to the immobilized compound [9]: does not bind | inhibitory activity toward PDGF receptor [2]: no significant inhibitory activity
Molecule: Cc1ccc(NC(=O)c2ccc(CN3CCN(C(=O)CCCC[C@@H]4SC[C@@H]5NC(=O)N[C@@H]54)CC3)cc2)cc1Nc1nccc(-c2cccnc2)n1 [IC200001]

Molecule: Cc1ccc(NC(=O)c2ccc(CN3CCN(C)CC3)cc2)cc1Nc1nccc(-c2cccnc2)n1 [imatinib, reference compound]
production of Aβ [10]: inhibits production of Aβ | additional effect of imatinib on Aβ levels under gSAP siRNA knockdown [8]: not additive; also recorded: little or no additional effect

photolabeling of the 16 kDa protein (gSAP-16K) [11]: specifically labeled
Molecule: Cc1ccc(NC(=O)c2ccc(N=[N+]=[N-])cc2O)cc1Nc1nccc(-c2cccnc2)n1 [^3H-G01]

Aβ production in the in vitro γ-secretase assay ([12]; 1 μM): abolishes Aβ production
Molecule: CC(C)C[C@H](NC(=O)[C@H](Cc1ccccc1)C[C@@H](O)[C@H](Cc1ccccc1)NC(=O)OC(C)(C)C)C(=O)N[C@@H](Cc1ccccc1)C(N)=O [L685,458, reference compound]

stimulation of Aβ production ([12]; 2 μg recombinant gSAP-16K added to membranes, BSA control): 2.4±0.3 fold
B1: gSAP-16K: recombinant 16 kDa C-terminal fragment, aa 733-854 of human gSAP, expressed in E. coli (protein, UniProt A4D1B5 733-854, looked up, fragment)
chain: T4 sequence (A4D1B5 733-854)
